Test [1] relates to Splenic naïve (CD44loCD62Lhi) CD4+ T cells. The test can be described thus: Treg induction in vitro (FACS). The format is cell-based. To be noted: anti-CD3/anti-CD28 mAb-coated beads, TGF-β; compared to no treatment control; FIG. 1. The source says: First, to gain mechanistic insight into the induction of Tregs by bacteria belonging to Clostridium Clusters IV, XIVa, and XVIII, germ-free mice were colonized with a cocktail of bacteria comprising bacterial strains belonging to Clostridium Cluster IV, bacterial strains belonging to Clostridium Cluster XIVa, and bacterial strains belonging to Clostridium Cluster XVIII (“Clostridium-colonized mice”). To identify metabolites potentially involved in Treg induction, the hundreds of metabolites present in the luminal composition of Clostridium-colonized, ex-germ free mice were painstakingly investigated with NMR-based metabolome analysis coupled with principal component analysis (PCA). […] The influence of acetate, propionate, and butyrate on Treg induction in vitro was measured as follows: Splenic naïve (CD44^loCD62L^hi) CD4+ T cells were stimulated with anti-CD3 and anti-CD28 mAb-coated beads and cultured in the presence of T-cell antigen receptor signaling and TGF-β with or without each of these short-chain fatty acids listed above.

For test [2], the system named is OT-I CD8 T cells with colonic lamina propria CD4+CD25+ Treg cells. As to the kind of experiment: Cognate antigen-driven suppression assay. The format is cell-based, mice. To be noted: experiment repeated adding flagellin; after 3 days. On the procedure: Fourth, investigation was carried to determine whether bacteria belonging to Clostridium Clusters IV, XIVa, and XVIII provide bacterial antigens to T cells. To do this, assessment was carried out of the antigen specificity of Tregs accumulated in mice colonized by a mixture of 17strains belonging to Clostridium Clusters, […] (“17-mix”) using a cognate antigen-driven suppression assay. […] CD 11c+cells were isolated from spleens of SPF C57BL/6 mice, pulsed with 0.5 μM SIINFEKL (SEQ ID NO: 2) OT-I peptide alone or in combination with either of 5μM ISQAVHAAHAEINEAGR (SEQ ID NO: 3) OT-II peptide or autoclaved caecal contents from +17-mix mice, and plated at 5 x 10^4well. CD8OT-I T cells (Teff) were added to the CD11c+cell-seeded plates at 5 x 10^4/well. Then, CD4+CD25+T cells sorted from colonic LP of +17-mix mice (LP Treg) or from spleens of SPF OT-II mice (OT-II Treg) were added to the culture at the indicated ratio of Treg to Teff cells. After 3 days, all cells were harvested, stained with anti-CD4 and anti-CD8antibodies, and analysed by flow cytometry to enumerate the number of CD8 OT-I T cells. Depicted data in FIG. 4b represent average of duplicates. […]

The values below come from patent US10130695B2, “Compositions containing combinations of bioactive molecules derived from microbiota for treatment of disease” (priority 2013, dated 2018).

Regarding `CC(=O)O` [acetate], the “differentiation of Treg cells” value in test [1] is given as “enhanced differentiation of Treg cells”.

Regarding `CCC(=O)O` [propionate], in test [1], the “differentiation of Treg cells” value is “enhanced differentiation of Treg cells”.

B1: flagellin: flagellin (SEQ ID NO 1), an antigen highly abundant in bacteria belonging to Clostridium Clusters IV, XIVa, and XVIII (protein)
chain: MVVQHNLQAMNSNRMLGITQKTASKSTEKLSSGYAINRAADNAAGLAISEKMRKQIRGLTQASTNAEDGISSVQTAEGALTEVHDMLQRMNELAIQAANGTNSEDDRSYIQDEIDQLTQEIDRVAETTKFNETYLLKGDTKNVDAMDYTYSYKAVTTNTVARASVLAAENTATGMSVSISFAANSGKVTAADSNNLAKAIRDQGFTITTSTQNGKVVYGLELNGSDAKANYTVSTVSMEAGTFKILNSNKQVVASVTISTTASFKKVSGMSQIVTAYSVSAAYATGDVYSLYDADGNAISANKLDKYFTAGGATEAGGIATTLSANSGVPKVYDVLGKEVSAVSIASTLVTAVKDKTAALKMNFHVGADGTDNNKIKINIEAMTAKSLGVNGLKVSGSSGTNATNAIEIIAGAIKKVSTQRSALGAVQNRLEHTINNLDNIVENTTAAESGIRDTDMATEMVKYSNANILSQAGQSMLAQSNQSNQGVLQLLQ
Regarding B1, in test [2], the “colonic Lamina Propria Treg cells specific for the antigen” value was “colonic Lamina Propria Treg cells specific for flagellin were isolated”.
